Data reported in ChEMBL document CHEMBL6083293, “Novel Benzimidazole Derivatives as Potent Inhibitors of Microsomal Prostaglandin E2 Synthase 1 for the Potential Treatment of Inflammation, Pain, and Fever” (J Med Chem, 2024).
Active and inactive are the calls of the source. No cut-off for these calls is given here.

Legend:
[1] = Cytotoxicity against human MDM cells assessed as LDH release at 3 uM measured after 3 hrs; assay type: toxicity, cell-based
[2] = tested on: Cavia porcellus; experiment: Anti-hyperalgesic activity against carrageenan-induced guinea pig mechanical hyperalgesia model at 30 mg/kg, po; assay type: functional, organism-based
[3] = Oral bioavailability in guinea pig at 20 mg/kg; assay type: ADME, organism-based, Cavia porcellus; settings: in vivo
[4] = target: T1, Arachidonate 5-lipoxygenase-activating protein (Homo sapiens) (UniProt P20292); experiment: Inhibition of FLAP in calcium ionophore A23187-stimulated human Neutrophil cells at 1 uM preincubated for 15 mins followed by calcium ionophore A23187 stimulation for 10 mins by RP-HPLC analysis; assay type: cell-based; settings: time 25.0 min
T1 sequence (whole entry): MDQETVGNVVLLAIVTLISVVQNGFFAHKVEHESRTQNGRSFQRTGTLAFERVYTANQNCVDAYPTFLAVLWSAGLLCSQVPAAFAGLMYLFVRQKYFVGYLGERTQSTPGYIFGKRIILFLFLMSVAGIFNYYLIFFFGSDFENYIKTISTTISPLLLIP

[5] = Half life in guinea pig at 2 mg/kg, iv; assay type: ADME, organism-based, Cavia porcellus; settings: in vivo
[6] = Hepatotoxicity in guinea pig assessed as effect on AST level in plasma at 30 mg/kg, po; assay type: toxicity, organism-based, Cavia porcellus; settings: in vivo
[7] = target: T2, Prostaglandin G/H synthase 2 (Homo sapiens) (UniProt P35354); experiment: Inhibition of human recombinant COX-2 at 1 uM using arachidonic acid as substrate preincubated for 6 mins followed by substrate addition and measured after 10 mins by RP-HPLC analysis; settings: time 16.0 min
T2 sequence (whole entry): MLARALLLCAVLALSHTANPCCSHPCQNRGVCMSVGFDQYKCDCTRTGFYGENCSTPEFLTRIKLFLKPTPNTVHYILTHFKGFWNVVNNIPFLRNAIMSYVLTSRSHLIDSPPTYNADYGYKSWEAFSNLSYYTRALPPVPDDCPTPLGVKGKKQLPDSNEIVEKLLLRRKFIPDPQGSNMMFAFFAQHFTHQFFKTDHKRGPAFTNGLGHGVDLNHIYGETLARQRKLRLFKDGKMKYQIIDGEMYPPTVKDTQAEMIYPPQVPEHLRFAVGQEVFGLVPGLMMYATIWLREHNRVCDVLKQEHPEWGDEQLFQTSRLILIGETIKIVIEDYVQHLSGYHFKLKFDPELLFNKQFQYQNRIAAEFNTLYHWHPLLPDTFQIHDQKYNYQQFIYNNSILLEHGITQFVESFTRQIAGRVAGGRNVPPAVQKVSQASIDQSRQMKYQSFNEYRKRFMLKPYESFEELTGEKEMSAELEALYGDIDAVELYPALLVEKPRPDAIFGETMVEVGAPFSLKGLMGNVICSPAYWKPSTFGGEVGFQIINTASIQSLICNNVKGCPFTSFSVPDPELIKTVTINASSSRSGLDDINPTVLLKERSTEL

[8] = Cmax in guinea pig at 20 mg/kg, po; assay type: ADME, organism-based, Cavia porcellus; settings: in vivo
[9] = Half life in guinea pig at 20 mg/kg, po; assay type: ADME, organism-based, Cavia porcellus; settings: in vivo
[10] = Hepatotoxicity in guinea pig assessed as increase in ALP level in plasma at 30 mg/kg, po; assay type: toxicity, organism-based, Cavia porcellus; settings: in vivo
[11] = AUC (0 to infinity) in guinea pig at 20 mg/kg, po; assay type: ADME, organism-based, Cavia porcellus; settings: in vivo
[12] = tested on: Cavia porcellus; experiment: Anti-inflammatory activity against carrageenan-induced paw edema in guinea pig assessed as inhibition of edema formation at 30 mg/kg, po measured at 120 mins; assay type: functional, organism-based
[13] = tested on: Cavia porcellus; experiment: Anti-pyretic activity against LPS-induced guinea pig pyresis model assessed as increase in rectal temperature at 30 mg/kg, po measured at 180 to 240 mins; assay type: functional, organism-based; settings: time 180-240 min
[14] = Metabolic stability in human liver microsome assessed as intrinsic clearance; assay type: ADME; settings: liver microsomes, read-out: CLH
[15] = Metabolic stability in human liver microsome assessed as half life; assay type: ADME; settings: liver microsomes
[16] = Metabolic stability in guinea pig liver microsome assessed as intrinsic clearance; assay type: ADME, Cavia porcellus; settings: liver microsomes, read-out: CLH
[17] = Toxicity in guinea pig assessed as increase in sinusoidal capillary diameter at 30 mg/kg, po; assay type: organism-based, Cavia porcellus; settings: in vivo
[18] = Clearance in guinea pig at 2 mg/kg, iv; assay type: ADME, organism-based, Cavia porcellus; settings: in vivo
[19] = tested on: Cavia porcellus; experiment: Anti-inflammatory activity against carrageenan-induced paw edema in guinea pig assessed as inhibition of edema formation at 30 mg/kg, po measured at 240 mins; assay type: functional; settings: 4 h
[20] = Volume of distribution at steady state in guinea pig at 2 mg/kg, iv; assay type: ADME, organism-based, Cavia porcellus; settings: in vivo, read-out: Vdss
[21] = Hepatotoxicity in guinea pig assessed as effect on ALT level in plasma at 30 mg/kg, po; assay type: toxicity, organism-based, Cavia porcellus; settings: in vivo
[22] = Cytotoxicity against human MDM cells assessed as metabolic activity at 3 uM measured after 48 hrs by MTT assay; assay type: toxicity, cell-based
[23] = Metabolic stability in guinea pig liver microsome assessed as half life; assay type: ADME, Cavia porcellus; settings: liver microsomes
[24] = Initial plasma concentration in guinea pig at 2 mg/kg, iv; assay type: ADME, organism-based, Cavia porcellus
[25] = target: T3, Polyunsaturated fatty acid 5-lipoxygenase (Homo sapiens) (UniProt P09917); experiment: Inhibition of human recombinant 5-LOX expressed in Escherichia coli BL21(DE3) at 1 uM using arachidonic acid as substrate preincubated with compound for 15 mins followed by substrate and CaCl2 addition measured after 10 mins by RP-HPLC analysis; settings: time 25.0 min
T3 sequence (whole entry): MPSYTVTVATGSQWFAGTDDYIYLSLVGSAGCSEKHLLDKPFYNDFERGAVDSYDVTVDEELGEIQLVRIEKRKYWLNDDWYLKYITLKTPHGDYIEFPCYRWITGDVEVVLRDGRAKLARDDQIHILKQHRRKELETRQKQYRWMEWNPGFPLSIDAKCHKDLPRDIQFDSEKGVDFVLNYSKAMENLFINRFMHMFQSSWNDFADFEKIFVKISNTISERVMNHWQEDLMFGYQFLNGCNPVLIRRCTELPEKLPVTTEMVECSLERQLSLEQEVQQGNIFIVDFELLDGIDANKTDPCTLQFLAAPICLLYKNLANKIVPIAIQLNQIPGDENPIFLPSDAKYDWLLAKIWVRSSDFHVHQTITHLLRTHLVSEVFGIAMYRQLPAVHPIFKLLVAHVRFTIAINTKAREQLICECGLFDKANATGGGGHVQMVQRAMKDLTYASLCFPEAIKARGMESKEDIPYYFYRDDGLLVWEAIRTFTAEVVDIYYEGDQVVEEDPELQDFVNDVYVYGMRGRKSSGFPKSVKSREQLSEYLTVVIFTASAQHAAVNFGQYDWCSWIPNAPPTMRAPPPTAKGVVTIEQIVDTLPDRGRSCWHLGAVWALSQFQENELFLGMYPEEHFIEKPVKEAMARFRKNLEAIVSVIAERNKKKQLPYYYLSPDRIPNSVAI

[26] = Toxicity in guinea pig assessed as increase in number of vacuolated hepatocytes at 30 mg/kg, po; assay type: organism-based, Cavia porcellus; settings: in vivo
[27] = target: T4, Prostaglandin G/H synthase 1 (Ovis aries) (UniProt P05979); experiment: Inhibition of ovine COX-1 at 1 uM using arachidonic acid as substrate preincubated for 6 mins followed by substrate addition and measured after 10 mins by RP-HPLC analysis; settings: time 16.0 min
T4 sequence (whole entry): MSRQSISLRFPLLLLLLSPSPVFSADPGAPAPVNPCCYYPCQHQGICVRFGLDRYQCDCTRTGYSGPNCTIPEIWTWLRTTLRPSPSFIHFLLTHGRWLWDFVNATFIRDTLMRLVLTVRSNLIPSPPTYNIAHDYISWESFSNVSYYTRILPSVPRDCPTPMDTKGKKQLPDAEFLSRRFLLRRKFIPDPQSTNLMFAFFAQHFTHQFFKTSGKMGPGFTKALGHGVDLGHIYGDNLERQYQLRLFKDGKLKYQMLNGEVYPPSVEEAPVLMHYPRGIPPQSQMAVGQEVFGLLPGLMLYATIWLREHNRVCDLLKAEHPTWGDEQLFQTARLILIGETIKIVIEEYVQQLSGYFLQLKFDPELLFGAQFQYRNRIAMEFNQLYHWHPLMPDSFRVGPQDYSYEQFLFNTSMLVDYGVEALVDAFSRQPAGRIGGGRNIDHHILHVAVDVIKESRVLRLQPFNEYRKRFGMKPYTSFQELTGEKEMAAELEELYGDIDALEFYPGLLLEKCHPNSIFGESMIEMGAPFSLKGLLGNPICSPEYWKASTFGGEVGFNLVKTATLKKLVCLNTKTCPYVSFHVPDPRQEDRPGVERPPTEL

[28] = Hepatotoxicity in guinea pig assessed as increase in ALP level in plasma at 10 mg/kg, po; assay type: toxicity, organism-based, Cavia porcellus; settings: in vivo
[29] = Toxicity in guinea pig assessed as increase in sinusoidal capillary diameter at 10 mg/kg, po; assay type: organism-based, Cavia porcellus; settings: in vivo
[30] = target: T5, Prostaglandin E synthase (Homo sapiens) (UniProt O14684); experiment: Inhibition of mPGES-1 in human M1-like MDM cells assessed as reduction in TXB2 formation at 10 uM; assay type: cell-based
T5 sequence (whole entry): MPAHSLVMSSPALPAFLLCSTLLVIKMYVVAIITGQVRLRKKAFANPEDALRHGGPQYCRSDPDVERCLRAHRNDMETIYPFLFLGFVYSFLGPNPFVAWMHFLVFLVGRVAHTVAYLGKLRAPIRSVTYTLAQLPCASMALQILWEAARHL

[31] = Toxicity in guinea pig assessed as increase in number of vacuolated hepatocytes at 10 mg/kg, po; assay type: organism-based, Cavia porcellus; settings: in vivo
[32] = tested on: Cavia porcellus; experiment: Anti-inflammatory activity against carrageenan-induced paw edema in guinea pig assessed as reduction in paw swelling at 10 mg/kg, po measured at 240 mins; assay type: functional, organism-based
[33] = tested on: Cavia porcellus; experiment: Anti-hyperalgesic activity against carrageenan-induced guinea pig mechanical hyperalgesia model at 10 mg/kg, po; assay type: functional, organism-based
[34] = target: T5, Prostaglandin E synthase (Homo sapiens); experiment: Inhibition of mPGES-1 in human M1-like MDM cells assessed as reduction in PGE2 formation at 10 uM; assay type: cell-based

Row | SMILES | bioavailability [3] [%] | half-life [5] [min] | Cmax [8] [ng/mL] | half-life [9] [min] | AUC(0-inf) [11] [ng·h/mL] | microsomal CLint [14] [µL/min/mg] | half-life [15] [min] | microsomal CLint [16] [µL/min/mg] | clearance [18] [mL/min/kg] | Vd [20] [L/kg] | half-life [23] [min] | C0 [24] [ng/mL] | other results
1 | CC(C)(C(=O)NCc1ccc(Cl)c(C(=O)Nc2ccc(-c3nc4cc(C(F)(F)F)ccc4[nH]3)cc2)c1)C(F)(F)F | – | – | – | – | – | 203 | 6.8 | 13.9 | – | – | 103 | – | –
2 | CC(C)(C(=O)NCc1ccc(Cl)c(C(=O)Nc2ccc(Cc3nc4cc(C(F)(F)F)ccc4[nH]3)cc2)c1)C(F)(F)F | – | – | – | – | – | 27.4 | 51.2 | 28.2 | – | – | 49.3 | – | –
3 | COc1ccc2c(c1)c(CC(=O)O)c(C)n2C(=O)c1ccc(Cl)cc1 [INDOMETHACIN] | – | – | – | – | – | – | – | – | – | – | – | – | Activity [28]: Toxic; Activity [29]: Non-toxic; inhibition [30]: inactive; Activity [31]: Non-toxic; Activity [32]: Active; Activity [33]: Active; inhibition [34]: inactive
4 | CC(C)(C)C(=O)NCc1ccc(Cl)c(C(=O)Nc2ccc(-c3nc4cc(C(F)(F)F)ccc4[nH]3)cc2)c1 | – | – | – | – | – | 247 | 5.6 | 302 | – | – | 4.6 | – | –

More lines, main results first:

Row | bioavailability [3] [%] | half-life [5] [min] | Cmax [8] [ng/mL] | half-life [9] [min] | AUC(0-inf) [11] [ng·h/mL] | microsomal CLint [14] [µL/min/mg] | half-life [15] [min] | microsomal CLint [16] [µL/min/mg] | clearance [18] [mL/min/kg] | Vd [20] [L/kg] | half-life [23] [min] | C0 [24] [ng/mL] | SMILES | other results
5 | 61 | 234 | 1370 | 288 | 13800 | 45.2 | 30.7 | < 7.5 | 14.9 | 4.1 | 185 | 878 | O=C(Nc1ccc(-c2nc3cc(C(F)(F)F)ccc3[nH]2)cc1)c1cc(CNC(=O)C2(C(F)(F)F)CC2)ccc1Cl | Activity [1]: Non-toxic; Activity [2]: Active; inhibition [4]: Active; Activity [6]: Non-toxic; inhibition [7]: Active; Activity [10]: Non-toxic; Activity [12]: Active; Activity [13]: Active; Activity [17]: Mild_effect; inhibition in vivo at 30 mg/kg [19]: 60%; Activity [21]: Non-toxic; Activity [22]: Non-toxic; inhibition [25]: Active; Activity [26]: Mild_effect; inhibition [27]: Active
6 | 16 | 336 | 49 | 342 | 620 | 315 | 4.4 | 163 | 87.7 | 10 | 8.5 | 733 | O=C(Nc1ccc(-c2nc3cc(C(F)(F)F)ccc3[nH]2)cc1)c1cc(CNC(=O)C2(C(F)(F)F)CCC2)ccc1Cl | –
